# pIC50: −log10 of the molar value. Where two headings read alike, the source gives them in different places.
# Legend:
# [1] = system: colorectal cancer cell line (HT-29); test: MTT assay, 48 h, HT-29
# Protocol: (§5) 7 cell lines were aliquoted to each well of a 96-well plate at 5×10^3 cells, and cultured for 24 hours. […] The drug-treated cells were cultured in an incubator (37° C., 5% CO2) for 48 hours, and 5 mg/ ? MTT reagent 10 ? was added to each well and cultured for additional 4 hours. Then, culture medium was removed and DMSO 100 ? was treated to dissolve the MTT stained precipitate, and absorbance was measured at 540 nm with a microplate reader.
# [2] = system: liver cancer cell line (HepG2); test: MTT assay, 48 h, HepG2
# Protocol: as §5
# [3] = system: colorectal cancer cell line (DLD-1); test: MTT assay, 72 h, colorectal cancer cell line; type: cell-based; conditions: for IC50: Homo sapiens
# Protocol: (§1) The calcium salts of Examples 1 to 3 were added to each well by concentration (20 mg/ ? , mg/ ? , 0.8 mg/ ? , 0.16 mg/ ? , 0.032 mg/ ? , 0.0064 mg/ ? , 0.00128 mg/ ? , 0.000256 mg/ ? ). […] The supernatant was removed using a centrifuge, DMSO 200 ? was added to each well to dissolve the MTT stained precipitate, and OD540 value was measured at 540 nm with an ELISA reader.
# [4] = system: colorectal cancer cell line (HCT-116); test: MTT assay, 48 h, HCT-116; conditions: for IC50: Homo sapiens, HCT-116, 48 h
# Protocol: as §5
# [5] = system: stomach cancer cell line (SNU-638); test: MTT assay, 48 h, SNU-638
# Protocol: as §5
# [6] = system: brain cancer cell line (U87MG); test: MTT assay, 72 h, brain cancer cell line; type: cell-based; conditions: for IC50: Homo sapiens, U-87 MG
# Protocol: as §1
# PDH enzyme = test: Time-dependent PDH enzyme activity in cancer cells; type: cell-based; conditions: DLD-1 and HT-29 cancer cells; FIG. 29
# [7] = system: lung cancer cell line (A-549); test: MTT assay, 48 h, A549
# Protocol: as §5
# [8] = system: breast cancer cell line (MDA-MB-231); test: MTT assay, 72 h, breast cancer cell line; type: cell-based; conditions: for IC50: Homo sapiens, MDA-MB-231, 72 h; for IC50 of Breast cancer cell line: MDA-MB-231, 72 h, MTT
# Protocol: as §1
# [9] = system: ovarian cancer cell line (A2780); test: MTT assay, 48 h, A2780
# Protocol: as §5
# [10] = system: pancreatic cancer cell line (PANC-1); test: MTT assay, 48 h, PANC-1
# Protocol: as §5
# [11] = system: poly (ADP-ribose) polymerase 1 (PARP-1); test: Western blot, PARP-1 expression in HCT-116; type: cell-based, human; conditions: 24 h
# Protocol: The cultured cancer cells were pulverized with a homogenizer and centrifuged, and the expression levels of poly (ADP-ribose) polymerase 1 (PARP-1), β-catenin, VEGF and β-actin proteins contained in the lysate were measured using Western blot.
# DLD-1 cell = test: IC50 of each drug alone, 48 h, DLD-1; type: cell-based
# Protocol: (§2) Then, various concentration of Example or chemical anticancer drugs (Fluorouracil (5-FU), SN-38, Paclitaxel (PTX)) were treated thereto alone.
# [12] = system: human colorectal cancer cell lines (HCT-116 and HT-29); test: Change in ascorbic acid level in cancer cells; type: cell-based; conditions: 1 mM; 24 h; lysate; vs untreated control
# Protocol: After culture, the cultured cancer cells were pulverized with a homogenizer and centrifuged, and the concentration of ascorbic acid contained in the lysate was measured using an ascorbic acid assay kit (Biovision, San Francisco, CA).
# HT-29 cell = test: IC50 of each drug alone, 48 h, HT-29; type: cell-based, human
# Protocol: as §2
# HCT-116 cell = test: IC50 of each drug alone, 48 h, HCT-116; type: cell-based, human
# Protocol: as §2
# DLD-1 = test: Hetero salts vs homo salts, cell viability and cytotoxicity, DLD-1; type: cell-based; conditions: for viability at 10000 µM: DLD-1, read-out: cell viability, DLD-1 (10 mM)
# Protocol: (§3) Hetero salts prepared according to the examples (ASCA101, ASCA201) and homo salts were applied to colorectal cancer cell lines, and their effects on cell viability and cytotoxicity were evaluated.
# (§4) Herein, “Na-ASC” refers to sodium ascorbate, “Na-DCA” refers to sodium dichloroacetate, “Ca (ASC) 2” refers to calcium ascorbate, “Ca (DCA) 2” refers to calcium dichloroacetate, and “Ca (LA) 2” refers to calcium lactate.
# SW480 = test: Hetero salts vs homo salts, cell viability and cytotoxicity, SW480; type: cell-based; conditions: for viability at 5000 µM: SW480, read-out: cell viability, SW480 (5 mM)
# Protocol: as §3, §4
# [13] = Homo sapiens, HT-29, 48 h, read-out: IC50 mM of HT-29 Colorectal cancer cell line
# [14] = Homo sapiens, HT-29, 48 h, read-out: IC50 of HT-29 Colorectal cancer cell line (mg/ml)
# [15] = Homo sapiens, HepG2, 48 h, read-out: IC50 mM of HepG2 Liver cancer
# [16] = Homo sapiens, HepG2, 48 h, read-out: IC50 of HepG2 Liver cancer (mg/ml)
# [17] = read-out: IC50 mM of HCT-116 Colorectal cancer cell line
# [18] = read-out: IC50 of HCT-116 Colorectal cancer cell line (mg/ml)
# [19] = Homo sapiens, SNU-638, 48 h, read-out: IC50 mM of SNU-638 Stomach cancer
# [20] = Homo sapiens, SNU-638, 48 h, read-out: IC50 of SNU-638 Stomach cancer (mg/ml)
# [21] = Homo sapiens, A549, 48 h, read-out: IC50 mM of A549 Lung cancer
# [22] = Homo sapiens, A549, 48 h, read-out: IC50 of A549 Lung cancer (mg/ml)
# [23] = Homo sapiens, A2780, 48 h, read-out: IC50 mM of A2780 Ovarian cancer
# [24] = Homo sapiens, A2780, 48 h, read-out: IC50 of A2780 Ovarian cancer (mg/ml)
# [25] = Homo sapiens, PANC-1, 48 h, read-out: IC50 mM of PANC-1 Pancreatic cancer
# [26] = Homo sapiens, PANC-1, 48 h, read-out: IC50 of PANC-1 Pancreatic cancer (mg/ml)
# [27] = read-out: IC50 value, HCT-116 cell
# [28] = Homo sapiens, HCT-116, read-out: IC50 value, HCT-116 cell
# [29] = Homo sapiens, DLD-1, read-out: cytotoxicity, DLD-1
# [30] = Homo sapiens, SW480, read-out: cytotoxicity, SW-480
compound,measurement,setting,value
"O=C(O)C(Cl)Cl [Dichloroacetic acid, dichloroacetic acid, reference compound]",IC50,[1]; [13],> 5 mM
same,IC50,[1]; [14],> 1.7 mg/mL
same,IC50,[2]; [15],> 5 mM
same,IC50,[2]; [16],> 1.7 mg/mL
same,IC50,"[3]; DLD-1, 72 h, read-out: IC50 of Colorectal cancer cell line (mg/ml)",1.21 mg/mL
same,IC50,[4]; [17],> 5 mM
same,IC50,[4]; [18],> 1.7 mg/mL
same,IC50,[5]; [19],> 5 mM
same,IC50,[5]; [20],> 1.7 mg/mL
same,IC50,[6]; read-out: IC50 of Brain cancer cell line (mg/ml),3.71 mg/mL
same,time-dependent PDH activity,PDH enzyme,peaked at 6 hours post-treatment and subsequently declined
same,IC50,[7]; [21],> 5 mM
same,IC50,[7]; [22],> 1.7 mg/mL
same,IC50,[8]; read-out: IC50 of Breast cancer cell line (mg/ml),0.43 mg/mL
same,IC50,[9]; [23],> 5 mM
same,IC50,[9]; [24],> 1.7 mg/mL
same,IC50,[10]; [25],> 5 mM
same,IC50,[10]; [26],> 1.7 mg/mL
"CC(O)C(=O)[O-].O=C1O[C@H]([C@@H](O)CO)C([O-])=C1O.[Ca+2] [Example 2, calcium salts of ascorbic acid and lactate]",concentration at which expression level of full length PARP-1 was decreased the most,[11],0.34 mg/mL
same,pIC50,DLD-1 cell,3.47
same,IC50 of HT-29 Colorectal cancer cell line (mg/ml),"[1]; 48 h, MTT, value in brackets",(0.23) mg/ml
same,IC50,"[1]; read-out: IC50 mM of HT-29 Colorectal cancer cell line, 48 h, MTT",0.66 mM
same,ascorbic acid concentration in cancer cells,[12],increased
same,IC50 of HepG2 Liver cancer (mg/ml),"[2]; 48 h, MTT, value in brackets",(0.79) mg/ml
same,IC50,"[2]; read-out: IC50 mM of HepG2 Liver cancer, 48 h, MTT",2.3 mM
same,IC50 of Colorectal cancer cell line,"[3]; DLD-1, 72 h, MTT",70 µg/mL
same,IC50 of HCT-116 Colorectal cancer cell line (mg/ml),"[4]; 48 h, MTT, value in brackets",(0.11) mg/ml
same,IC50 of SNU-638 Stomach cancer (mg/ml),"[5]; 48 h, MTT, value in brackets",(0.49) mg/ml
same,IC50,"[5]; read-out: IC50 mM of SNU-638 Stomach cancer, 48 h, MTT",1.44 mM
same,pIC50,HT-29 cell,2.75
same,pIC50,HCT-116 cell; [27],3.37
same,IC50 of Brain cancer cell line,"[6]; U87MG, MTT",600 µg/mL
same,pIC50,DLD-1,2.07
same,IC50 of A549 Lung cancer (mg/ml),"[7]; 48 h, MTT, value in brackets",(1.06) mg/ml
same,IC50,"[7]; read-out: IC50 mM of A549 Lung cancer, 48 h, MTT",3.1 mM
same,IC50 of Breast cancer cell line,[8],50 µg/mL
same,IC50 of A2780 Ovarian cancer (mg/ml),"[9]; 48 h, MTT, value in brackets",(0.05) mg/ml
same,IC50,"[9]; read-out: IC50 mM of A2780 Ovarian cancer, 48 h, MTT",0.14 mM
same,IC50 of PANC-1 Pancreatic cancer (mg/ml),"[10]; 48 h, MTT, value in brackets",(0.14) mg/ml
same,IC50,"[10]; read-out: IC50 mM of PANC-1 Pancreatic cancer, 48 h, MTT",0.4 mM
same,pIC50,SW480,2.59
"CC(O)C(=O)[O-].O=C([O-])C(Cl)Cl.[Ca+2] (stereo not shown) [Example 3, calcium salts of dichloroacetic acid and lactate]",concentration at which expression level of full length PARP-1 was decreased the most,[11],0.3 mg/mL
same,IC50 of Colorectal cancer cell line,"[3]; DLD-1, 72 h, MTT",860 µg/mL
same,IC50 of Brain cancer cell line,"[6]; U87MG, MTT",800 µg/mL
same,IC50 of Breast cancer cell line,[8],50 µg/mL
"O=c1[nH]cc(F)c(=O)[nH]1 [Fluorouracil (5-FU), Fluorouracil]",pIC50,HCT-116 cell; [28],5.22
"O=C1O[C@H]([C@@H](O)CO)C([O-])=C1O.[Na+] [Na-ASC, sodium ascorbate]",viability at 10000 µM,DLD-1; Homo sapiens,65.3%
same,pIC50,DLD-1; [29],2.02
same,viability at 5000 µM,SW480; Homo sapiens,40.8%
same,pIC50,SW480; [30],2.52
"O=C([O-])C(Cl)Cl.[Na+] [Na-DCA, sodium dichloroacetate]",viability at 10000 µM,DLD-1; Homo sapiens,75.4%
same,pIC50,DLD-1; [29],< 2.00
same,viability at 5000 µM,SW480; Homo sapiens,99.8%
same,pIC50,SW480; [30],< 2.30
"CC(=O)O[C@H]1C(=O)[C@@]2(C)[C@H]([C@H](OC(=O)c3ccccc3)[C@]3(O)C[C@H](OC(=O)[C@H](O)[C@@H](NC(=O)c4ccccc4)c4ccccc4)C(C)=C1C3(C)C)[C@]1(OC(C)=O)CO[C@@H]1C[C@@H]2O [Paclitaxel (PTX), Paclitaxel]",pIC50,HCT-116 cell; [28],8.11
CCc1c2c(nc3ccc(O)cc13)-c1cc3c(c(=O)n1C2)COC(=O)[C@]3(O)CC [SN-38],pIC50,HCT-116 cell; [27],6.60
"O=C1O[C@H]([C@@H](O)CO)C(O)=C1O [ascorbic acid, reference compound]",IC50,[1]; [13],0.93 mM
same,IC50,[1]; [14],0.32 mg/mL
same,ascorbic acid concentration in cancer cells,[12],lower level of increased ascorbic acid concentration
same,IC50,[2]; [15],4.2 mM
same,IC50,[2]; [16],1.44 mg/mL
same,IC50,"[3]; DLD-1, 72 h, MTT, read-out: IC50 of Colorectal cancer cell line",0.09 mg/mL
same,IC50,[4]; [17],0.27 mM
same,IC50,[4]; [18],0.09 mg/mL
same,IC50,[5]; [19],2.48 mM
same,IC50,[5]; [20],0.85 mg/mL
same,IC50,"[6]; U87MG, MTT, read-out: IC50 of Brain cancer cell line",0.9 mg/mL
same,IC50,[7]; [21],> 5 mM
same,IC50,[7]; [22],> 1.7 mg/mL
same,IC50,[8]; read-out: IC50 of Breast cancer cell line,0.06 mg/mL
same,IC50,[9]; [23],0.15 mM
same,IC50,[9]; [24],0.05 mg/mL
same,IC50,[10]; [25],0.37 mM
same,IC50,[10]; [26],0.13 mg/mL
calcium ascorbate [Ca(ASC)2],ascorbic acid concentration in cancer cells,[12],lower level of increased ascorbic acid concentration
same,"cell viability, DLD-1 (10 mM)",DLD-1,27.51
same,"cell viability, SW480 (5 mM)",SW480,33.19
calcium dichloroacetate [Ca(DCA)2],"cell viability, DLD-1 (10 mM)",DLD-1,62.53
same,"cell viability, SW480 (5 mM)",SW480,105.98

# Source: US20250375473A1, “Pharmaceutical composition for treating cancer comprising an ionic compound having metal ion binding thereto” (METAFINES.CO.LTD., priority 2018, published 2025)
